Converted amounts (≈) assume the structure as drawn. Where a name gives a salt, the structure may show the parent alone. Read-outs that look alike come from different tables or passages of the source.
Key:
[1] = both, rat, in vivo, iv, 4 weeks
Experimental: A repeated-dose, 4-week toxicity study was conducted in male and female rats, where single, daily IV bolus doses up to 60 mg/kg were given. […] A 28-day toxicity study was also conducted in male and female marmosets, where iclaprim mesylate was infused intravenously over a 20-minute interval.

[2] = system: E. faecalis; test: MIC with/without bovine pulmonary surfactant, E. faecalis; type: cell-based, Enterococcus faecalis; settings: for MIC: Enterococcus faecalis
Experimental: (§1) Clinical isolates were identified by the submitting laboratories and confirmed by JMI Laboratories using standard bacteriologic algorithms and methodologies, including Matrix-Assisted Laser Desorption Ionization-Time Of Flight Mass Spectrometry (MALDI-TOF MS). When necessary, MALDI-TOF MS was performed using the Bruker Daltonics MALDI Biotyper (Billerica, Mass., USA), following manufacturer's instructions. Isolates selected were bacterial species commonly associated with pneumonia. […] 2.2 Susceptibility testing
(§2) Antibacterial susceptibility testing was measured by JMI Labs (North Liberty, Iowa, USA). […] These clinical isolates were collected from US (n=4), Mexico (n=2), and Italy (n=1). Susceptibility testing was performed by broth microdilution in accordance with the Clinical and Laboratory and Standards Institute (CLSI) guidelines M07-A10 (2015) and the standard operating procedures at JMI laboratories. Minimum inhibitory concentrations (MICs) were based on CLSI criteria (2015). There are no published breakpoints for iclaprim. E. coli, K. pneumoniae, M. catarrhalis, E. faecalis, and S. aureus were tested in cation-adjusted Mueller-Hinton broth (CA-MHB). S. pneumoniae were tested in CA-MHB supplemented with 2.5-5% lysed horse blood, and H. influenza were tested in Haemophilus test medium. Quality control and interpretation of results were performed in accordance with CLSI M100-S26 (2016) methods. QC ranges for iclaprim were those approved by CLSI and published in M100-S26 (2016). Iclaprim and comparator antibiotic MIC results were within the CLSI published ranges against E. coli ATCC 25922, E. faecalis ATCC 29212, E. faecalis ATCC 33186, H. influenzae ATCC 49247, K. pneumoniae ATCC 700603 (ESBL phenotype), S. aureus ATCC 29213, and S. pneumoniae ATCC 49619. Isolates were tested with MIC panels (ThermoFisher Scientific, Cleveland, Ohio, USA) of comparator antibiotics (daptomycin and levofloxacin).
(§3) Because bovine pulmonary surfactant can introduce cloudiness to the MIC testing media, antimicrobial growth inhibition was also evaluated using the colorimetric metabolic indicator resazurin (Camlab Ltd., Cambridge, UK). […] S. pneumoniae panels were omitted from resazurin analysis because the color change was obscured by the lysed horse blood present in the test medium. Growth inhibition was then evaluated as a visible color change from blue (no growth) to pink (robust growth) and recorded as a MICRZ value.
(§4) The MICs of iclaprim, levofloxacin, and daptomycin were determined against Gram-positive and Gram-negative isolates.
(§5) A new vial of bovine pulmonary surfactant (BPS; Survanta®; Abbott Laboratories, Columbus, Ohio) was utilized for each independent experiment. Each vial was mixed thoroughly and a 100 μL aliquot was spread on an agar plate, which was incubated overnight to confirm sterility. […] The concentration of surfactant was expressed in terms of percent volume of Survanta® suspension, which consisted of phospholipid (25 mg/mL) and surfactant proteins (<1 mg/mL) in 0.9% sodium chloride solution (Goerke, 1998). MICs of daptomycin were determined in CAMHB with the Ca^2+ content adjusted to 50 mg/L.

[3] = system: M. catarrhalis; test: MIC with/without bovine pulmonary surfactant, M. catarrhalis; type: cell-based, Moraxella catarrhalis; settings: for MICRZ, Resazurin: +BPS: 2.5% v/v BPS; for MICRZ, Resazurin / MIC: no BPS; for MIC: Moraxella catarrhalis
Experimental: as §1, §2, §3, §4, §5

[4] = system: S. aureus; test: MIC with/without bovine pulmonary surfactant, S. aureus; type: cell-based, Staphylococcus aureus; settings: for MICRZ, Resazurin: +BPS: 2.5% v/v BPS; for MICRZ, Resazurin: no BPS
Experimental: as §1, §2, §3, §4, §5

[5] = system: S. pneumoniae; test: MIC with/without bovine pulmonary surfactant, S. pneumoniae; type: cell-based; settings: Streptococcus pneumoniae
Experimental: as §1, §2, §3, §4, §5

[6] = system: common Gram-positive and Gram-negative respiratory bacteria; test: Pulmonary surfactant interaction, overall effect on MIC and MICRZ; type: cell-based; settings: respiratory Gram-positive strains and clinical isolates; read-out: MIC and MICRZ in the presence of 2.5% BPS
Experimental: Antibacterial susceptibility testing was measured by JMI Labs (North Liberty, Iowa, USA). […] These clinical isolates were collected from US (n=4), Mexico (n=2), and Italy (n=1). Susceptibility testing was performed by broth microdilution in accordance with the Clinical and Laboratory and Standards Institute (CLSI) guidelines M07-A10 (2015) and the standard operating procedures at JMI laboratories. Minimum inhibitory concentrations (MICs) were based on CLSI criteria (2015). There are no published breakpoints for iclaprim. E. coli, K. pneumoniae, M. catarrhalis, E. faecalis, and S. aureus were tested in cation-adjusted Mueller-Hinton broth (CA-MHB). […]
Because bovine pulmonary surfactant can introduce cloudiness to the MIC testing media, antimicrobial growth inhibition was also evaluated using the colorimetric metabolic indicator resazurin (Camlab Ltd., Cambridge, UK). […] Growth inhibition was then evaluated as a visible color change from blue (no growth) to pink (robust growth) and recorded as a MICRZ value.
as §4
A new vial of bovine pulmonary surfactant (BPS; Survanta®; Abbott Laboratories, Columbus, Ohio) was utilized for each independent experiment. […] MICs of daptomycin were determined in CAMHB with the Ca^2+ content adjusted to 50 mg/L. […]

[7] = system: E. coli; test: MIC with/without bovine pulmonary surfactant, E. coli; type: cell-based, Escherichia coli; settings: E. coli ATCC 25922
Experimental: as §1, §2, §3, §4
A new vial of bovine pulmonary surfactant (BPS; Survanta®; Abbott Laboratories, Columbus, Ohio) was utilized for each independent experiment. […] MICs of daptomycin were determined in CAMHB with the Ca^2+ content adjusted to 50 mg/L.

[8] = system: H. influenzae; test: MIC with/without bovine pulmonary surfactant, H. influenzae; type: cell-based, Haemophilus influenzae; settings: for MIC: Haemophilus influenzae
Experimental: as §1, §2, §3, §4, §5

[9] = system: K. pneumoniae; test: MIC with/without bovine pulmonary surfactant, K. pneumoniae; type: cell-based, Klebsiella pneumoniae; settings: for MIC: Klebsiella pneumoniae
Experimental: as §1, §2, §3, §4, §5

[10] = E. faecalis ATCC 29212, 2.5% v/v BPS
[11] = E. faecalis ATCC 33186, 2.5% v/v BPS
[12] = ATCC29212, E. faecalis ATCC 29212, no BPS, read-out: MIC, CLSI
[13] = ATCC33186, E. faecalis ATCC 33186, no BPS, read-out: MIC, CLSI
[14] = M. catarrhalis Clinical Isolate 893806
[15] = M. catarrhalis Clinical Isolate 893807
[16] = S. aureus Clinical Isolate 825189
[17] = ATCC49619, S. pneumoniae ATCC 49619, 2.5% v/v BPS, read-out: MIC, CLSI: +BPS
[18] = ATCC49619, S. pneumoniae ATCC 49619, no BPS, read-out: MIC, CLSI
[19] = S. pneumoniae Clinical Isolate 818757, 2.5% v/v BPS, read-out: MIC, CLSI: +BPS
[20] = S. pneumoniae Clinical Isolate 818757, no BPS, read-out: MIC, CLSI
[21] = S. pneumoniae Clinical Isolate 825175, 2.5% v/v BPS, read-out: MIC, CLSI: +BPS
[22] = S. pneumoniae Clinical Isolate 825175, no BPS, read-out: MIC, CLSI

Compound: COc1cc(Cc2cnc(N)nc2N)c2c(c1OC)OC(C1CC1)C=C2 (racemic) [iclaprim mesylate, 5-[(2RS)-2-cyclopropyl-7,8-dimethoxy-2Hchromen-5-ylmethyl] pyrimidine-2,4-diamine methanesulfonate]
- dosages with histopathological changes at the injection sites [1]: ≥ 10 mg/kg/day

Compound: CCCCCCCCCC(=O)N[C@@H](Cc1c[nH]c2ccccc12)C(=O)N[C@H](CC(N)=O)C(=O)N[C@@H](CC(=O)O)C(=O)N[C@@H]1C(=O)NCC(=O)N[C@@H](CCCN)C(=O)N[C@@H](CC(=O)O)C(=O)N[C@H](C)C(=O)N[C@@H](CC(=O)O)C(=O)NCC(=O)N[C@H](CO)C(=O)N[C@@H]([C@H](C)CC(=O)O)C(=O)N[C@@H](CC(=O)c2ccccc2N)C(=O)O[C@@H]1C [Daptomycin]
- MICRZ, Resazurin: +BPS [2, 10]: >16 µg/mL
- MICRZ, Resazurin ([2]; E. faecalis ATCC 29212, no BPS): 2 µg/mL
- MICRZ, Resazurin: +BPS [2, 11]: >16 µg/mL
- MICRZ, Resazurin ([2]; E. faecalis ATCC 33186, no BPS): 1 µg/mL
- MIC [2, 12]: 2 µg/mL (≈ 1.23 µM)
- MIC [2, 13]: 1 µg/mL (≈ 0.617 µM)
- MICRZ, Resazurin: +BPS [3, 14]: >16 µg/mL
- MICRZ, Resazurin [3, 14]: 8 µg/mL
- MICRZ, Resazurin: +BPS [3, 15]: >16 µg/mL
- MICRZ, Resazurin [3, 15]: 8 µg/mL
- MIC [3, 14]: 8 µg/mL (≈ 4.94 µM)
- MICRZ, Resazurin: +BPS ([4]; S. aureus ATCC 29213): >16 µg/mL
- MICRZ, Resazurin ([4]; S. aureus ATCC 29213): 0.5 µg/mL
- MICRZ, Resazurin: +BPS [4, 16]: >16 µg/mL
- MICRZ, Resazurin [4, 16]: 0.25 µg/mL
- MIC [5, 17]: 16 µg/mL (≈ 9.87 µM)
- MIC [5, 18]: 0.25 µg/mL (≈ 0.154 µM)
- MIC [5, 19]: 16 µg/mL (≈ 9.87 µM)
- MIC [5, 20]: 0.25 µg/mL (≈ 0.154 µM)
- MIC [5, 21]: 16 µg/mL (≈ 9.87 µM)
- MIC [5, 22]: 0.25 µg/mL (≈ 0.154 µM)
- MIC [6]: > 16 µg/mL

Compound: C[C@H]1COc2c(N3CCN(C)CC3)c(F)cc3c(=O)c(C(=O)O)cn1c23 [Levofloxacin]
- MICRZ, Resazurin: +BPS ([7]; 2.5% v/v BPS): 0.03 µg/mL
- MICRZ, Resazurin ([7]; no BPS): 0.015 µg/mL
- MICRZ, Resazurin: +BPS [2, 10]: 1 µg/mL
- MICRZ, Resazurin ([2]; E. faecalis ATCC 29212, no BPS): 1 µg/mL
- MICRZ, Resazurin: +BPS [2, 11]: 2 µg/mL
- MICRZ, Resazurin ([2]; E. faecalis ATCC 33186, no BPS): 4 µg/mL
- MIC ([2]; ATCC29212, E. faecalis ATCC 29212, 2.5% v/v BPS, read-out: MIC, CLSI: +BPS): 1 µg/mL (≈ 2.77 µM)
- MIC [2, 12]: 1 µg/mL (≈ 2.77 µM)
- MIC ([2]; ATCC33186, E. faecalis ATCC 33186, 2.5% v/v BPS, read-out: MIC, CLSI: +BPS): 1 µg/mL (≈ 2.77 µM)
- MIC [2, 13]: 4 µg/mL (≈ 11.1 µM)
- MICRZ, Resazurin: +BPS ([8]; H. influenzae ATCC 49247, 2.5% v/v BPS): 0.03 µg/mL
- MICRZ, Resazurin ([8]; H. influenzae ATCC 49247, no BPS): 0.03 µg/mL
- MICRZ, Resazurin: +BPS ([8]; H. influenzae Clinical Isolate 824704, 2.5% v/v BPS): 0.015 µg/mL
- MICRZ, Resazurin ([8]; H. influenzae Clinical Isolate 824704, no BPS): 0.015 µg/mL
- MIC ([8]; ATCC49247, H. influenzae ATCC 49247, 2.5% v/v BPS, read-out: MIC, CLSI: +BPS): 0.03 µg/mL (≈ 0.083 µM)
- MIC ([8]; ATCC49247, H. influenzae ATCC 49247, no BPS, read-out: MIC, CLSI): 0.03 µg/mL (≈ 0.083 µM)
- MIC ([8]; H. influenzae Clinical Isolate 824704, 2.5% v/v BPS, read-out: MIC, CLSI: +BPS): 0.015 µg/mL (≈ 0.0415 µM)
- MIC ([8]; H. influenzae Clinical Isolate 824704, no BPS, read-out: MIC, CLSI): 0.015 µg/mL (≈ 0.0415 µM)
- MICRZ, Resazurin: +BPS ([9]; K. pneumoniae ATCC 700603, 2.5% v/v BPS): 1 µg/mL
- MICRZ, Resazurin ([9]; K. pneumoniae ATCC 700603, no BPS): 1 µg/mL
- MICRZ, Resazurin: +BPS ([9]; K. pneumoniae Clinical Isolate 858055, 2.5% v/v BPS): 0.06 µg/mL
- MICRZ, Resazurin ([9]; K. pneumoniae Clinical Isolate 858055, no BPS): 0.06 µg/mL
- MIC ([9]; ATCC700603, K. pneumoniae ATCC 700603, 2.5% v/v BPS, read-out: MIC, CLSI: +BPS): 1 µg/mL (≈ 2.77 µM)
- MIC ([9]; ATCC700603, K. pneumoniae ATCC 700603, no BPS, read-out: MIC, CLSI): 1 µg/mL (≈ 2.77 µM)
- MIC ([9]; K. pneumoniae Clinical Isolate 858055, 2.5% v/v BPS, read-out: MIC, CLSI: +BPS): 0.12 µg/mL (≈ 0.332 µM)
- MIC ([9]; K. pneumoniae Clinical Isolate 858055, no BPS, read-out: MIC, CLSI): 0.06 µg/mL (≈ 0.166 µM)
- MICRZ, Resazurin: +BPS [3, 14]: 0.06 µg/mL
- MICRZ, Resazurin [3, 14]: 0.06 µg/mL
- MICRZ, Resazurin: +BPS [3, 15]: 0.06 µg/mL
- MICRZ, Resazurin [3, 15]: 0.06 µg/mL
- MIC [3, 14]: 0.06 µg/mL (≈ 0.166 µM)
- MICRZ, Resazurin: +BPS ([4]; S. aureus ATCC 29213): 0.12 µg/mL
- MICRZ, Resazurin ([4]; S. aureus ATCC 29213): 0.25 µg/mL
- MICRZ, Resazurin: +BPS [4, 16]: 0.25 µg/mL
- MICRZ, Resazurin [4, 16]: 0.25 µg/mL
- MIC [5, 17]: 1 µg/mL (≈ 2.77 µM)
- MIC [5, 18]: 1 µg/mL (≈ 2.77 µM)
- MIC [5, 19]: 1 µg/mL (≈ 2.77 µM)
- MIC [5, 20]: 1 µg/mL (≈ 2.77 µM)
- MIC [5, 21]: 1 µg/mL (≈ 2.77 µM)
- MIC [5, 22]: 1 µg/mL (≈ 2.77 µM)

— patent publication US10080751B2, “Systems and methods for treating bacterial infection” (priority 2016, dated 2018)
